≈ marks a conversion by molar mass, not a printed value. Some results are limits rather than exact numbers.

The test system of assay [1] is Staphylococcus epidermidis. The assay is described as follows: Antibiofilm activity against Staphylococcus epidermidis clinical isolate 523/12 assessed as inhibition of biofilm formation measured after 24 hrs by confocal laser scanning microscopy analysis. The format is functional, organism-based.
Assay [2] relates to Staphylococcus epidermidis. The assay is described as follows: Antibacterial activity against Staphylococcus epidermidis clinical isolate 532/12 assessed as reduction in bacterial growth measured after 24 hrs by CLSI based broth micro-dilution method. It is filed as functional.
The test system of assay [3] is Staphylococcus epidermidis. The assay is described as follows: Antimicrobial activity against Staphylococcus epidermidis ATCC 35984 assessed as reduction in microbial growth after 24 hrs by CLSI based broth microdilution method. The format is functional.
Assay [4] has as its system Staphylococcus epidermidis. The assay is described as follows: Antibiofilm activity against Staphylococcus epidermidis clinical isolate 526/12 assessed as inhibition of biofilm formation measured after 24 hrs by confocal laser scanning microscopy analysis. The format is functional, organism-based.
The subject of assay [5] is Staphylococcus epidermidis. The assay is described as follows: Antibacterial activity against Staphylococcus epidermidis clinical isolate 517/12 assessed as reduction in bacterial growth measured after 24 hrs by CLSI based broth micro-dilution method. It is filed as functional.
Assay [6] concerns Staphylococcus epidermidis. Put plainly: Antibacterial activity against Staphylococcus epidermidis clinical isolate 533/12 assessed as reduction in bacterial growth measured after 24 hrs by CLSI based broth micro-dilution method. It is filed as functional.
The subject of assay [7] is Staphylococcus epidermidis. Put plainly: Antimicrobial activity against Staphylococcus epidermidis ATCC 12228 assessed as reduction in microbial growth after 24 hrs by CLSI based broth microdilution method. The format is functional.
In assay [8] the test system is Staphylococcus epidermidis. The assay is described as follows: Antibiofilm activity against Staphylococcus epidermidis clinical isolate 519/12 assessed as inhibition of biofilm formation measured after 24 hrs by confocal laser scanning microscopy analysis. It is filed as functional, organism-based.
Assay [9] relates to Staphylococcus epidermidis. Put plainly: Antibacterial activity against Staphylococcus epidermidis clinical isolate 531/12 assessed as reduction in bacterial growth measured after 24 hrs by CLSI based broth micro-dilution method. It is filed as functional.
The test system of assay [10] is Staphylococcus epidermidis. Put plainly: Antibiofilm activity against Staphylococcus epidermidis clinical isolate 528/12 assessed as inhibition of biofilm formation measured after 24 hrs by confocal laser scanning microscopy analysis. It is filed as functional, organism-based.
Assay [11] concerns Staphylococcus epidermidis. Put plainly: Antibiofilm activity against Staphylococcus epidermidis clinical isolate 533/12 assessed as inhibition of biofilm formation measured after 24 hrs by confocal laser scanning microscopy analysis. The format is functional, organism-based.
The test system of assay [12] is Staphylococcus epidermidis. Put plainly: Antibiofilm activity against Staphylococcus epidermidis clinical isolate 517/12 assessed as inhibition of biofilm formation measured after 24 hrs by confocal laser scanning microscopy analysis. It is filed as functional, organism-based.
In assay [13] the test system is Staphylococcus epidermidis. The assay is described as follows: Antibiofilm activity against Staphylococcus epidermidis ATCC 12228 assessed as inhibition of biofilm formation measured after 24 hrs by confocal laser scanning microscopy analysis. It is filed as functional, organism-based. The conditions noted are these: ATCC 12228, 24 h.
Assay [14] deals with Staphylococcus epidermidis. The assay is described as follows: Antibacterial activity against Staphylococcus epidermidis clinical isolate 528/12 assessed as reduction in bacterial growth measured after 24 hrs by CLSI based broth micro-dilution method. The format is functional.
Assay [15] concerns Staphylococcus epidermidis. The assay is described as follows: Antibiofilm activity against Staphylococcus epidermidis clinical isolate 532/12 assessed as inhibition of biofilm formation measured after 24 hrs by confocal laser scanning microscopy analysis. The format is functional, organism-based.
In assay [16] the test system is Staphylococcus epidermidis. Put plainly: Antibiofilm activity against Staphylococcus epidermidis clinical isolate 531/12 assessed as inhibition of biofilm formation measured after 24 hrs by confocal laser scanning microscopy analysis. It is filed as functional, organism-based.
Assay [17] concerns Staphylococcus aureus. The assay is described as follows: Antibacterial activity against methicillin-sensitive Staphylococcus aureus ATCC 29213 assessed as reduction in bacterial growth incubated for 18 hrs by mueller hinton broth dilution method. The format is functional, organism-based. The note with it: ATCC 29213, 18 h.
In assay [18] the test system is Staphylococcus aureus. Put plainly: Antibiofilm activity against Methicillin-sensitive Staphylococcus aureus ATCC 29213 assessed as reduction in biofilm formation at 200 uM incubated for 24 hrs by crystal violet staining based analysis relative to control. It is filed as functional. Set-up: scale not given: the % may be the effect or the level left.
Assay [19] relates to Staphylococcus aureus. Put plainly: Antibacterial activity against Staphylococcus aureus ATCC 29213 assessed as reduction in bacterial growth incubated for 18 to 24 hrs by broth microdilution method. It is filed as functional. The conditions noted are these: time 18-24 hrs.
In assay [20] the test system is Staphylococcus epidermidis. The assay is described as follows: Antibacterial activity against Staphylococcus epidermidis RP62A assessed as reduction in bacterial growth incubated for 18 to 20 hrs by broth microdilution assay. The format is functional. The conditions noted are these: time 18-20 hrs.
Assay [21] concerns Staphylococcus aureus. Put plainly: Antibacterial activity against Staphylococcus aureus ATCC 6538 assessed as reduction in bacterial growth incubated for 18 to 24 hrs by broth microdilution method. It is filed as functional. The conditions noted are these: time 18-24 hrs.
For assay [22], the system named is Staphylococcus aureus. Put plainly: Antibiofilm activity against Staphylococcus aureus ATCC 25923 after 24 hrs by crystal violet staining based assay. The format is functional.
Assay [23] deals with Staphylococcus aureus. The assay is described as follows: Antibacterial activity against Staphylococcus aureus ATCC 25923 assessed as reduction in bacterial growth incubated for 18 to 24 hrs by broth microdilution method. The format is functional. The note with it: time 18-24 hrs.
Assay [24] can be described thus: Inhibition of Staphylococcus aureus sortase A by FRET assay.
In assay [25] the test system is Staphylococcus aureus. Put plainly: Antibacterial activity against […] Staphylococcus aureus ATCC 29213 assessed as reduction in bacterial growth incubated for 18 hrs by mueller hinton broth dilution method. It is filed as functional, organism-based. The note with it: ATCC 29213, 18 h.
The test system of assay [26] is Klebsiella pneumoniae. The assay is described as follows: Antibacterial activity against Klebsiella pneumoniae ATCC 13882 assessed as fold change in colistin MIC incubated for 16 to 18 hrs by broth microdilution method. The note with it: time 16-18 hrs. It is filed as functional.
Assay [27] deals with Klebsiella pneumoniae. The assay is described as follows: Antibiofilm activity against Klebsiella pneumoniae ATCC 13882 assessed as inhibition of biofilm formation incubated for 24 hrs by crystal violet staining based broth microdilution method. The conditions noted are these: ATCC 13882, 24 h. The format is functional, organism-based.

Take `Fc1ccc(NC(=S)Nc2nccs2)cc1Cl`: the IC50 turned out to be 3.14 µg/mL (≈ 10.9 µM) in assay [1]; 4.95 µg/mL (≈ 17.2 µM) in assay [4]; 2.5 µg/mL (≈ 8.69 µM) in assay [8]; 1.11 µg/mL (≈ 3.86 µM) in assay [10]; 2.88 µg/mL (≈ 10 µM) in assay [11]; 0.66 µg/mL (≈ 2.29 µM) in assay [12]. Also, the IC50 in assay [13] amounted to 0.35 µg/mL (≈ 1.22 µM); in [15], 2.21 µg/mL (≈ 7.68 µM); in assay [16], 1.13 µg/mL (≈ 3.93 µM). Besides, the minimal inhibitory concentration (MIC) in assay [2] was found to be 4 µg/mL (≈ 13.9 µM); in assay [3] it was 4 µg/mL; in assay [5], 8 µg/mL (≈ 27.8 µM); in assay [6], 4 µg/mL (≈ 13.9 µM); in assay [7] it was 4 µg/mL; in assay [9], 4 µg/mL (≈ 13.9 µM). The minimal inhibitory concentration (MIC) in assay [14] amounted to 8 µg/mL (≈ 27.8 µM).

For `CCCCCCCCCC(=O)NCCCc1cnc(N)nc1`, the IC50 in assay [17] came to 67 µM. Further, the Activity in assay [18] was found to be 80%.

As for `CC(=O)/C(=N\Nc1ccccc1)C(=O)O`, the minimal inhibitory concentration (MIC) in assay [19], in [20], in assay [21] and in [23] was above 270 µM in each case. The compound further had an Activity in assay [22] of 60%. In assay [24], this compound displayed an IC50 of 80 µM.

Turning to `Nc1ncc(C#CC2CCCC2)cn1`, the IC50 in assay [25] amounted to 72 µM. Moreover, in [18], the Activity came to 85%.

Take `Nc1nccc(-c2cccc(NC(=O)c3cc(Br)cc(Br)c3)c2)n1`: the “fold change (FC)” value in [26] is given as 32. For the same compound, the IC50 in assay [27] was found to be 17.4 µM.

The values are drawn from ChEMBL document CHEMBL5512599, “Synthetic non-toxic anti-biofilm agents as a strategy in combating bacterial resistance” (Eur J Med Chem, 2023).
